Measurements taken from patent US20160220569A1, “CDK4/6 Inhibitor Dosage Formulations For The Protection Of Hematopoietic Stem And Progenitor Cells During Chemotherapy” (G1 Therapeutics, Inc., priority 2015, published 2016).
Several values for one entry are separate records, joined by “and”; a condition that tells them apart may be missing. Equal entries are not always repeated.

Experiments:
[1] = tested on: bone marrow cells; assay: Bone marrow EdU incorporation (S-phase) after single dose in dogs; format: in vivo; details: increasing single doses, 8 and 16 hours
[2] = tested on: Target lesions; assay: Tumor response, Compound 1 with etoposide and carboplatin; format: in vivo, human; set-up: Cycle 2 Target Lesion Sum / Cycle4 Target Lesion Sum / Cycle 6 Target Lesion Sum: unit not given here
Text: As shown in FIG. 64 all 6 patients had at least partial responses during the course of 2 to 6 cycles of chemotherapy. Target lesions were summed and response tabulated as follows: […]

[3] = Repeat-dose toxicity in rats (IV 7 days, oral 14 days); format: in vivo
Method: The magnitude and/or duration of this effect differed among cell lineages but was dose-related in all lineages. Effects on hematopoiesis were readily monitored by peripheral blood cell counts and were reversible when dosing stopped.
In both species, the toxicity profile was similar and the repeat-dose toxicity studies identified no observed adverse effect levels (NOAELs). […] This IV NOAEL was the basis for selecting a starting dose of 6 mg/m^2 for the first clinical trial, which is 1/10th of the lowest safe dose level in any animal study.
In rats, the toxicity profile with oral administration was similar to that with IV administration, except that pulmonary macrophage accumulation occurred with oral administration for 14 days at ≧5 mg/kg (≧30 mg/m^2) but not with IV administration for 7 days at up to 25 mg/kg (≧150 mg/m^2). Based on this finding, the oral NOAEL was 2 mg/kg (≧12 mg/m^2).

[4] = tested on: mouse splenocytes; assay: Interferon gamma from splenocytes stimulated ex vivo with anti-CD3/antiCD28 after 5FU; format: in vivo, C57BL/6 Mice; details: mice pretreated with 100 mg/kg Compound 1, 5FU 50 mg/kg
Text: FIG. 59 is a bar graph of interferon gamma concentration (pg/ml) at day 2 and 7 for mouse splenocytes that were isolated and stimulated ex vivo with anti-CD3/antiCD28.

[5] = Nonclinical IV and oral pharmacokinetics in rats; format: in vivo; details: rat, plasma
Text: Systemic exposure in rats as measured by Cmax and AUClast was dose-dependent.

[6] = Compound 1 200 mg/m^2 followed by etoposide and carboplatin, individual subjects

## CN1CCN(c2ccc(Nc3ncc4cc5n(c4n3)C3(CCCCC3)CNC5=O)nc2)CC1 [Compound 1, 2′-((5-(4-methylpiperazin-1-yl)pyridin-2-yl)amino)-7′,8′-dihydro-6′H-spiro[cyclohexane-1,9′-pyrazino[1′,2′:1,5]pyrrolo[2,3-d]pyrimidin]-6′-one]
[1]
  bone marrow cells in S phase: decrease in the number of cells in S phase
[2]; [6]
  Cycle 2 Target Lesion Sum: 74 and 22 and 76 and 161 and 50 and 35
  Cycle4 Target Lesion Sum: 54 and 0 (2×) and 62 and 146
  Cycle 6 Target Lesion Sum: 47 and 0
[2]; Compound 1 200 mg/m^2 with etoposide and carboplatin, 2 to 6 cycles, 6 patients
  patients with at least partial responses: 6 patients
[3]; 7 days
  dose with clinically significant leukopenia: ≥ 150 mg/m^2
[3]; oral administration for 14 days
  dose with pulmonary macrophage accumulation: ≥ 5 mg/kg
[3]; rat, in vivo, IV, read-out: NOAEL for IV administration
  NOAEL at 7 days: 10 mg/kg
[3]; rat, in vivo, oral
  NOAEL at 14 days: 2 mg/kg
[4]
  interferon gamma levels: did not decrease significantly
[5]; both sexes, rats, after IV administration
  half-life: ~4 h
[5]; oral
  bioavailability: 60 to 70%
